From patent EP4796125A1, “TREATMENT OF PATIENT WITH NEGATIVE P53 GENE MUTATION, POSITIVE KRAS GENE MUTATION AND POSITIVE BRCA MUTATION” (Ascentawits Pharmaceuticals, Ltd., priority 2023, dated 2025)

How the values were obtained:
Type in all cases: cell-based
H460 cells [1] = experiment: Cell cycle G2/M arrest, PI staining and flow cytometry
Description: • 1) H460/HPAF-II cell suspensions were added to a 24-well plate, with a cell density of 100000 cells/well and 995 µL of medium per well. • 2) The cells were cultured overnight in a 37°C, 5% CO2 incubator. • 3) Compound Treatment
24 hours after cell plating, according to the protocol, the experimental groups for each cell line were as follows: Monotherapy: 24 hours after cell plating, 5 µL of test compounds at different concentrations was added: 1% DMSO, 5 µM Nutlin-3, and 0.1 nM AST-3424. The plate was gently shaken to ensure even mixing, and then placed in a 37°C, 5% CO2 incubator.
• Cells were pretreated with AST-3424 for 2 hours, and then co-treatment with Nutlin-3 for 24 hours; • cells were pretreated with Nutlin-3 for 2 hours, and then co-treatment with AS -3424 for 24 hours; and • cells were co-treated with AST-3424 and Nutlin-3 for 24 hours. • 4) The cells were digested, centrifuged at 1000 g at 4°C, washed once with pre-cooled PBS, centrifuged at 1000 g at 4°C, and fixed with 1 mL of pre-cooled 70% ethanol at - 20°C overnight. • 5) The cells were centrifuged at 3000 g at 4°C, washed once with pre-cooled PBS (phosphate buffer), and centrifuged at 3000g at 4°C. PI staining solution was prepared. The cells were stained at 37°Cfor 30 minutes (protected from light), and stored in an ice bath (protected from light). The cells were detected using a flow cytometer on the same day, and the proportions of cells in different cell cycle phases was analyzed using FlowJo.
The remaining operations were similar to those of the above experiment, and the compound treatment was as follows: […]

H460 cells [2] = experiment: Applicant's previous cancer cell proliferation inhibition test; conditions: Homo sapiens, NCI-H460, single drug, applicant's previous test data
[3] = tested on: H460 WT (H460 wild-type cells); experiment: In vitro proliferation under normoxia (CTG, 72 hours), Example 26; conditions: Homo sapiens, NCI-H460, Table 21, AST-3424 alone or + 3 µM AST-3021
Description: • 1) H460 cell suspension was added to a 96-well plate (100 µL per well), with a cell density of 2000 cells/well. • 2) The cells were cultured overnight in a 37°C, 5% CO2 incubator. • 3) Compound Treatment
(§1) Monotherapy: 24 hours after cell plating, each well was supplemented with 99.5 µL of growth medium. Then, 0.5 µL of test compounds at different concentrations was added. The plate was gently shaken to ensure even mixing, and then placed in a 37°C, 5% CO2 incubator.
Combination therapy: 24 hours after cell plating, each well was supplemented with 99 µL of growth medium. Then, 0.5 µL of the combination compound Nutlin-3 was added. The plate was gently shaken to ensure even mixing, and then placed in an incubator for 2 hours. Then, 0.5 µL of test compounds at different concentrations was added. […]

NCI-H460 cells = experiment: In vitro proliferation under normoxia conditions (CTG, 72 hours), Example 29; conditions: Homo sapiens, Table 25, normoxia, alone or + 3 µM AST-3021
Description: • 1) NCI-H460 and NCI-H460 P53KO # 1 cell suspensions were added to 96-well plate (100 µL per well), with a cell density of 2000 cells/well. • 2) The cells were cultured overnight in a 37°C, 5% CO2 incubator. • 3) Compound Treatment
as §1
Combination therapy: 24 hours after cell plating, each well was supplemented with 99 µL of growth medium. Then, 0.5 µL of the combination compound was added. The plate was gently shaken to ensure even mixing, and then placed in an incubator for 2 hours. Then, 0.5µL of test compounds at different concentrations was added. The plate was gently shaken to ensure even mixing, and then placed in a 37°C, 5% CO2 incubator. • 4) The cell plate was placed in the incubator for 72 hours. • 5) The cell plate to be tested was placed at room temperature and equilibrated for 30 minutes, and 100 µL of medium was discarded from each well. • 6) 25 µL of CTG reagent was added to each well, placed at a fast shaker to shake for 2 minutes, and placed at room temperature for 30 minutes (protected from light). • 7) The chemiluminescence signal value was read using a multifunctional microplate reader with a reading time of 1000 ms. • 8) IC50 (half maximal inhibitory concentration) values were calculated using GraphPad Prism 5 software.

## C[C@H](OP(=O)(N1CC1)N1CC1)c1ccc([N+](=O)[O-])c(Oc2cccc(C(=O)N(C)C)c2)c1 [AST-3424]
H460 cells [1]; 0.1 nM AST-3424, 5 µM Nutlin-3, 24 hours, combination: AST-3424 added first (Figure 9)
  cell cycle (G0/G1, S, G2/M phases): does not significantly alter the cell cycle
H460 cells [1]; 0.03-1 nM AST-3424 ± 5 µM Nutlin-3 (AST-3424 pre-treatment 2 hours), second experiment (Figure 10)
  G2/M cell cycle arrest: induces concentration-dependent G2/M cell cycle arrest
H460 cells [2]
  IC50: 0.47 nM
[3]
  IC50: 0.23 nM
NCI-H460 cells
  IC50: 0.43 nM
